The results in this text go back to US12544381B2, “Topical formulation for JAK inhibitor” (Incyte Corporation, priority 2010, dated 2026).

The nature of this data set: Solubility studies (Example 4). It is filed as physicochemical. The method, then: In order to determine the solubility of (R)-3-(4-(7H-pyrrolo[2,3-d]pyrimidin-4-yl)-1H-pyrazol-1-yl)-3-cyclopentylpropanenitrile (free base) or its phosphate salt, approximately 5 mL of a potential solvent was added to approximately 50 mg of the API or its salt at room temperature. The mixtures were suspended and rotated on a wheel. If the mixtures became clear solutions, more solid material was added. The suspensions were then suspended over 24 hours. The samples were filtered through 0.2 micron filters. The liquid portions were collected and diluted with 50/50 water methanol/water. The concentrations of the diluted samples were analyzed by HPLC. When the free base or salt was fairly insoluble, the results are approximate only.

Where a name gives a salt, the structure may show the parent alone.

What is called Solubility is the dissolved amount per volume that the medium holds. A low value points to a poorly soluble substance.

With `N#CC[C@H](C1CCCC1)n1cc(-c2ncnc3[nH]ccc23)cn1` [Phosphate Salt, (R)-3-(4-(7H-pyrrolo[2,3-d]pyrimidin-4-yl)-1H-pyrazol-1-yl)-3-cyclopentylpropanenitrile Phosphoric Acid Salt], the Solubility turned out to be 3000 µg/mL (Benzyl alcohol); 7300 µg/mL (Ethanol); 11000 µg/mL (Glycerin); 600 µg/mL (Isopropanol); 400 µg/mL (Isosorbide dimethyl ether); 100 µg/mL (Olelyl alcohol). Further, the Solubility is 23000 µg/mL (PEG 200); 14000 µg/mL (PEG 300); 24000 µg/mL (Propylene glycol); 10000 µg/mL (Transcutol); 51000 µg/mL (Trolamine); 23000 µg/mL (Water/PEG 200 (50/50)). Further, the Solubility stood at 18000 µg/mL (Water/glycerin/trolamine (40/40/20)); 21000 µg/mL (Water/glyercin (50/50)); 2700 µg/mL (Water, room temperature); 1500 µg/mL (pH 4, citric buffer, 0.1M); 200 µg/mL (pH 6, citric buffer, 0.1M).
